# Test results: patent US20090175838A1, “METHODS OF MODULATING IMMUNE FUNCTION” (priority 2007, published 2009)
# No end group written: not given here. *: point of attachment. Biotin = O=C1N[C@H]2[C@H](CS[C@H]2CCCCC(=O)*)N1
# Columns and labels:
# [1] = tested on: cell surface CLIP on Raji or Daudi cells; assay: MKN1 (bioCLIP) effect on cell surface CLIP level (flow cytometry); type: cell-based, human; details: 24 and 48 hours
# Description: (§1) The ability of MKN1 (bioCLIP) to alter cell surface CLIP and CD74 levels was determined using Raji or Daudi cells.
# (§2) Data were analyzed by histogram with Y axis represents cell number of the 5000 live cells versus the X axis which is a reflection of relative FITC fluorescence with either antibodies to CLIP or CD74. The distance between the histogram from the isotype control staining versus the histogram reflecting the specific stain and is a measure of level of cell surface CLIP or CD74 when staining a population of live Raji or Daudi cells.
# (§3) Cell Culture Conditions: The Raji and Daudi cell lines were purchased from American Type Culture Collection, were thawed, and grown in RPMI 1640 medium supplemented with standard supplements, including 10% fetal calf serum, gentamycin, penicillin, streptomycin, sodium pyruvate, HEPES buffer, 1-glutamine, and 2-ME.
# (§4) Protocol: Cells were plated into a 12-well plate with 3 mls total volume containing approximately 0.5×10^6/mL for Daudi cells and 0.5×10^6/mL for Raji cells. […]
# (§5) Harvested cells were stained using standard staining procedure that called for a 1:100 dilution of Fitc-anti-human CLIP or CD74 antibody (FITC, Pharmingen, Cat # 554647) or isotype control. […] Samples were acquired and analyzed on a Coulter Excel Flow Cytometer.
# [2] = tested on: cell surface CD74 on Raji or Daudi cells; assay: MKN1 (bioCLIP) effect on cell surface CD74 level (flow cytometry); type: cell-based, human; details: 24 and 48 hours
# Description: as §1, §2, §3, §4, §5
# [3] = tested on: human B-cell lines, Raji and Daudi; assay: Binding of biotinylated synthetic peptide to B-cell lines (Streptavidin-PE flow cytometry); type: cell-based; details: 50 μM
# Description: (§6) The ability of synthetic peptides to compete with binding of CLIP peptides and result in the cell surface expression of CD1d was determined.
# (§7) Results: The results shown in FIG. 5 are expressed in histogram analyses. The Y axis represents cell number of the 5000 live cells versus the X axis which is a reflection of relative Fitc fluorescence versus Streptavidin-PE (eBioscience, Cat. #12-4317) that will bind with high affinity to cell-bound biotinylated peptides. The distance between the histogram from the isotype control staining versus the histogram reflecting the specific stain and is a measure of level of cell surface CD1d.
# as §3
# Protocol: Cells were plated into a 12 well plate with 3 mls total volume containing approximately 1.5×10^6/well for Daudi cells and 3.0×10^6/well for Raji cells. Treatment groups included no treatment as control and biotinylated […] (SEQ ID NO. 1) (also referred to as MKN 5) at 50 μM final concentration based on the reported molarity of the synthesized compounds. […]
# [4] = tested on: cell surface CD1d on Raji and Daudi cells; assay: Cell surface expression of CD1d after competing peptide (flow cytometry, anti-CD1d); type: cell-based, human; details: 50 μM, both cell lines
# Description: as §6, §7, §3
# Protocol: Cells were plated into a 12 well plate with 3 mls total volume containing approximately 1.5×10^6/well for Daudi cells and 3.0×10^6/well for Raji cells. Treatment groups included no treatment as control and biotinylated […] […]
# Harvested cells were stained using standard staining procedure that called for a 1:100 dilution of PE anti-CD1d. […] Samples were acquired and analyzed on a Coulter Excel Flow Cytometer.
# Sequence of cell surface CLIP on Raji or Daudi cells (P04233 97-120): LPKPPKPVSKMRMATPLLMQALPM
Substance,cell surface CLIP level [1],cell surface CD74 level [2],binding of biotinylated peptide to B-cell lines ([3]; 4 hours),binding of biotinylated peptide to B-cell lines ([3]; 24 hours),cell surface expression of CD1d ([4]; 4 hours),cell surface expression of CD1d ([4]; 24 hours)
SGG GSK MRM ATP LLM QAL Y (Biotin-SGGGSKMRMATPLLMQALY) [MKN1 (bioCLIP)],alters cell surface CLIP and CD74 levels,alters cell surface CLIP and CD74 levels,–,–,–,–
FRIMAVLAS (also: biotin),–,–,bound with high affinity,Less binding,marginally,slightly more
